Holding throughout (assay type): biochemical
One experiment concerns the target T1, Tie2 (Homo sapiens, UniProt Q02763).
T1 construct: A recombinant fusion protein of GST and the intracellular domains of Tie2; GST; made in house; host or cells: insect cells (Hi-5)
Nature of the experiment: Tie2-Kinase HTRF-Assay without kinase preactivation (assay 2). As to conditions: 10 μM ATP, pIC50 = −log IC50 in molar concentration, read-out: Tie 2 activity (assay 2). An excerpt:
Tie2-inhibitory activity of compounds of the present invention was quantified employing two Tie2 HTRF assay as described in the following paragraphs.
A recombinant fusion protein of GST and the intracellular domains of Tie2, expressed in insect cells (Hi-5) and purified by Glutathion-Sepharose affinity chromatography was used as kinase. Alternatively, commercially available GST-Tie2-fusion protein (Upstate Biotechnology, Dundee, Scotland) can be used as substrate for the kinase reaction the biotinylated peptide biotin-Ahx-EPKDDAYPLYSDFG (C-terminus in amid form) was used which can be purchased e.g. from the company Biosynthan GmbH (Berlin-Buch, Germany). Detection of phosphorylated product is achieved specifically by a trimeric detection complex consisting of the phosphorylated substrate, streptavidin-XLent (SA-XLent) which binds to biotin, and Europium Cryptate-labeled anti-phosphotyrosine antibody PT66 which binds to phosphorylated tyrosine.
Tie2 (3.5 ng/measurement point) was incubated for 60 min at 22° C. in the presence of 10 μM adenosine-tri-phosphate (ATP) and 1 μM substrate peptide (biotin-Ahx-EPKDDAYPLYSDFG-NH2) with different concentrations of test compounds (0 μM and concentrations in the range 0.001-20 μM) in 5 μl assay buffer [50 mM Hepes/NaOH pH 7, 10 mM MgCl2, 0.5 mM MnCl2, 1.0 mM dithiothreitol, 0.01% NP40, protease inhibitor mixture (“Complete w/o EDTA” from Roche, 1 tablet per 2.5 ml), 1% (v/v) dimethylsulfoxide]. The reaction was stopped by the addition of 5 μl of an aqueous buffer (25 mM Hepes/NaOH pH 7.5, 0.28% (w/v) bovine serum albumin) containing EDTA (90 mM) and the HTRF (Homogeneous Time Resolved Fluorescence) detection reagents streptavidine-XLent (0.2 μM, from Cis Biointernational, Marcoule, France) and PT66-Eu-Chelate (0.3 ng/μl; a europium-chelate labelled anti-phospho-tyrosine antibody from Perkin Elmer).
(§1) The resulting mixture was incubated 1 h at 22° C. to allow the binding of the biotinylated phosphorylated peptide to the streptavidine-XLent and the PT66-Eu-Chelate. Subsequently the amount of phosphorylated substrate peptide was evaluated by measurement of the resonance energy transfer from the PT66-Eu-Chelate to the streptavidine-XLent. Therefore, the fluorescence emissions at 620 nm and 665 nm after excitation at 350 nm was measured in a HTRF reader, e.g. a Rubystar (BMG Labtechnologies, Offenburg, Germany) or a Viewlux (Perkin-Elmer). The ratio of the emissions at 665 nm and at […] was taken as the measure for the amount of phosphorylated substrate peptide. The data were normalised (enzyme reaction without inhibitor=0% inhibition, all other assay components but no enzyme=100% inhibition) and IC50 values were calculated by a 4 parameter fit using an inhouse software.

A further experiment addresses T2, CDK2/CycE (Homo sapiens, UniProt P24941).
T2 construct: GST; purchased ProQinase GmbH (Freiburg, Germany); host or cells: insect cells (Sf9)
Nature of the experiment: CDK2 HTRF Assay (assay 4). As to conditions: 10 μM ATP, pIC50 = −log IC50 in molar concentration. An excerpt:
CDK2/CycE-inhibitory activity of compounds of the present invention was quantified employing the CDK2/CycE HTRF assay as described in the following paragraphs.
Recombinant fusion proteins of GST and human CDK2 and of GST and human CycE, expressed in insect cells (Sf9) and purified by Glutathion-Sepharose affinity chromatography, were purchase from ProQinase GmbH (Freiburg, Germany). As substrate for the kinase reaction biotinylated peptide biotin-Ttds-YISPLKSPYKISEG (C-terminus in amid form) was used which can be purchased e.g. form the company JERINI peptide technologies (Berlin, Germany).
CDK2/CycE was incubated for 60 min at 22° C. in the presence of different concentrations of test compounds in 5 μl assay buffer [50 mM Tris/HCl pH 8.0, 10 mM MgCl2, 1.0 mM dithiothreitol, 0.1 mM sodium ortho-vanadate, 10 μM adenosine-tri-phosphate (ATP), 0.75 μM substrate, 0.01% (v/v) Nonidet-P40 (Sigma), 1% (v/v) dimethylsulfoxide]. The concentration of CDK2/CycE was adjusted depending of the activity of the enzyme lot and was chosen appropriate to have the assay in the linear range, typical concentrations were in the range of 1 ng/ml. The reaction was stopped by the addition of 5 μl of a solution of HTRF detection reagents (0.2 μM streptavidine-XLent and 3.4 nM Phospho-(Ser) CDKs Substrate Antibody [product #2324B, Cell Signalling Technology, Danvers, Mass., USA} and 4 nM Prot-A-EuK [Protein A labeled with Europium Cryptate from Cis biointernational, France, product no. 61PRAKLB]) in an aqueous EDTA-solution (100 mM EDTA, 800 mM KF, 0.2% (w/v) bovine serum albumin in 100 mM HEPES/NaOH pH 7.0).
(In TR-FRET formats the signal depends on donor and acceptor labels being close together.)

The next experiment addresses T3, preactivated Tie2 (Homo sapiens, UniProt Q02763).
T3 construct: A recombinant fusion protein of GST and the intracellular domains of Tie2; GST; made in house; host or cells: insect cells (Hi-5)
Nature of the experiment: Tie2-Kinase HTRF-Assay with kinase preactivation (assay 3). As to conditions: 10 μM ATP, pIC50 = −log IC50 in molar concentration, read-out: Tie 2 activity (assay 3). The method, then: Assay 3: Tie2-Kinase HTRF-Assay with Kinase Preactivation
A recombinant fusion protein of GST and the intracellular domains of Tie2, expressed in insect cells (Hi-5) and purified by Glutathion-Sepharose affinity chromatography was used as kinase. As substrate for the kinase reaction the biotinylated peptide biotin-Ahx-EPKDDAYPLYSDFG (C-terminus in amid form) was used which can be purchased e.g. from the company Biosynthan GmbH (Berlin-Buch, Germany).
For activation, Tie2 was incubated at a conc. 12.5 ng/μl of for 20 min at 22° C. in the presence of 250 μM adenosine-tri-phosphate (ATP) in assay buffer [50 mM Hepes/NaOH pH 7, 10 mM MgCl2, 0.5 mM MnCl2, 1.0 mM dithiothreitol, 0.01% NP40, protease inhibitor mixture (“Complete w/o EDTA” from Roche, 1 tablet per 2.5 ml)].
For the subsequent kinase reaction, the preactivated Tie2 (0.5 ng/measurement point) was incubated for 20 min at 22° C. in the presence of 10 μM adenosine-tri-phosphate (ATP) and 1 μM substrate peptide (biotin-Ahx-EPKDDAYPLYSDFG-NH2) with different concentrations of test compounds (0 μM and concentrations in the range 0.001-20 μM) in 5 μl assay buffer [50 mM Hepes/NaOH pH 7, 10 mM MgCl2, 0.5 mM MnCl2, 0.1 mM sodium ortho-vanadate, 1.0 mM dithiothreitol, 0.01% NP40, protease inhibitor mixture (“Complete w/o EDTA” from Roche, 1 tablet per 2.5 ml), 1% (v/v) dimethylsulfoxide]. The reaction was stopped by the addition of 5 μl of an aqueous buffer (25 mM Hepes/NaOH pH 7.5, 0.28% (w/v) bovine serum albumin) containing EDTA (90 mM) and the HTRF (Homogeneous Time Resolved Fluorescence) detection reagents streptavidine-XLent (0.2 μM, from Cis Biointernational, Marcoule, France) and PT66-Eu-Chelate (0.3 ng/μl; a europium-chelate labelled anti-phospho-tyrosine antibody from Perkin Elmer).
as §1

T3 sequence (Q02763 770-1124 limits assumed): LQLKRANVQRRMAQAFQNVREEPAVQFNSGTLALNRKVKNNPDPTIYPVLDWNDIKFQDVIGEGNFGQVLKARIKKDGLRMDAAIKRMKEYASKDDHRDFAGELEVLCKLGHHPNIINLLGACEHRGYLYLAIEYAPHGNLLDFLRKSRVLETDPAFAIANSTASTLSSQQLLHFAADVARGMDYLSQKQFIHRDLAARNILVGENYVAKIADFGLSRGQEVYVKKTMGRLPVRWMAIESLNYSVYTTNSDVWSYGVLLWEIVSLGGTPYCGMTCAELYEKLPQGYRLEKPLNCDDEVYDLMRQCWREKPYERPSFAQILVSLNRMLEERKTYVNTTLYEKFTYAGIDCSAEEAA
T1 sequence (Q02763 770-1124 limits assumed): as above

In the case of `COc1nc(Nc2cccc(S(C)(=N)=O)c2)ncc1-c1ccc(NC(=O)Nc2cc(C(F)(F)F)ccc2F)c(F)c1` (racemic) [Example 45, 1-[2-Fluoro-4-(4-methoxy-2-{[3-(RS)-(S-methylsulfon-imidoyl)phenyl]-amino}pyrimidin-5-yl)phenyl]-3-[2-fluoro-5-(trifluoromethyl)phenyl]urea], the results for the IC50 at Tie2, at CDK2/CycE and at preactivated Tie2 were below 100 nM, above 10000 nM and below 100 nM, respectively.

For `CCOC(=O)N=S(C)(=O)c1cccc(Nc2ncc(-c3ccc(NC(=O)C4(c5ccccc5)CC4)cc3)c(N[C@H](C)CO)n2)c1` (mixture of isomers) [Example 9, N-{4-[2-({3-[(RS)-N-(Ethoxycarbonyl)-S-methylsulfonimidoyl]phenyl}amino)-4-{[(R)-2-hydroxy-1-methylethyl]amino}-pyrimidin-5-yl]phenyl}-1-phenylcyclopropane-carboxamide], the IC50 at Tie2 was 100 to 1000 nM; against CDK2/CycE, above 10000 nM; on preactivated Tie2, 100 to 1000 nM.

`CCOC(=O)N=S(C)(=O)c1cccc(Nc2ncc(-c3ccc(NS(=O)(=O)c4cccc(Cl)c4Cl)cc3)c(N[C@H](C)CO)n2)c1` (mixture of isomers) [Example 2, 2,3-Dichloro-N-{4-[2-({3-[(RS)-N-(ethoxycarbonyl)-S-methylsulfonimidoyl]phenyl}amino)-4-{[(R)-2-hydroxy-1-methylethyl]amino}pyrimidin-5-yl]-phenyl}benzenesulfonamide]: the values for the IC50 at Tie2, at CDK2/CycE and at preactivated Tie2 were 100 to 1000 nM, above 10000 nM and 100 to 1000 nM, respectively.

For the compound `CCOC(=O)N=S(C)(=O)c1ccc(Nc2ncc(-c3ccc(NC(=O)Nc4cccc(C(F)(F)F)c4)cc3)c(N[C@H](C)CO)n2)cc1` (mixture of isomers) [Example 7, 1-{4-[2-({4-[(RS)-N-(Ethoxycarbonyl)-S-methylsulfonimidoyl]phenyl}amino)-4-{[(R)-2-hydroxy-1-methylethyl]amino}-pyrimidin-5-yl]-phenyl}-3-[3-(trifluoromethyl)-phenyl]urea], the IC50 is below 100 nM on Tie2, above 10000 nM on CDK2/CycE and below 100 nM on preactivated Tie2.

On to `CS(=N)(=O)c1cccc(Nc2ncc(-c3ccc(NC(=O)Nc4cc(C(F)(F)F)ccc4F)c(F)c3)c(NCCCN3CCOCC3)n2)c1` (racemic) [Example 43, 1-[2-Fluoro-4-(2-{[3-(RS)-(S-methylsulfonimidoyl)phenyl]amino}-4-[(3-morpholin-4-ylpropyl)amino]-pyrimidin-5-yl)phenyl]-3-[2-fluoro-5-(trifluoromethyl)-phenyl]urea], for which the IC50 at Tie2 is below 100 nM; against CDK2/CycE, above 10000 nM; on preactivated Tie2, below 100 nM.

For `CNc1nc(Nc2cccc(S(C)(=N)=O)c2)ncc1-c1ccc(NC(=O)Nc2cc(C(F)(F)F)ccc2F)c(F)c1` (racemic) [Example 49, 1-{2-Fluoro-4-[4-(methylamino)-2-{[3-(RS)-(S-methylsulfonimidoyl)phenyl]amino}-pyrimidin-5-yl]phenyl}-3-[2-fluoro-5-(trifluoromethyl)-phenyl]urea], the IC50 at Tie2 was below 100 nM; at CDK2/CycE, above 10000 nM; at preactivated Tie2 it was below 100 nM.

With `CCOC(=O)N=S(C)(=O)c1cccc(Nc2ncc(-c3ccc(NC(=O)Nc4cc(C(F)(F)F)ccc4F)c(F)c3)c(NCCN3CCN(C)CC3)n2)c1` (racemic) [Example 28, 1-{4-[2-({3-[(RS)-N-(Ethoxycarbonyl)-S-methylsulfonimidoyl]phenyl}amino)-4-{[2-(N-methyl-piperazin-4-yl)ethyl]amino}pyri-midin-5-yl]-2-fluorophenyl}-3-[2-fluoro-5-(trifluoromethyl)-phenyl]urea], the IC50 at Tie2 was below 100 nM; at CDK2/CycE, above 10000 nM; at preactivated Tie2, 100 to 1000 nM.

Turning to `C[C@H](CO)Nc1nc(Nc2cccc(S(C)(=N)=O)c2)ncc1-c1ccc(NS(=O)(=O)c2cccc(Cl)c2Cl)c(F)c1` (mixture of isomers) [Example 42, 2,3-Dichloro-N-[2-fluoro-4-(4-{[(R)-2-hydroxy-1-methylethyl]amino}-2-{[3-(RS)-(S-methylsulfonimidoyl)phenyl]amino}-pyrimidin-5-yl)phenyl]benzene-sulfonamide], the IC50 is 100 to 1000 nM on Tie2, above 10000 nM at CDK2/CycE and below 100 nM on preactivated Tie2.

Take `COc1nc(Nc2cccc(S(C)(=N)=O)c2)ncc1-c1ccc(NS(=O)(=O)c2cccc(Cl)c2Cl)c(F)c1` (racemic) [Example 46, 2,3-Dichloro-N-[2-fluoro-4-(4-methoxy-2-{[3-(RS)-(S-methylsulfonimidoyl)phenyl]amino}pyrimi-din-5-yl)phenyl]benzenesul-fonamide]: the IC50 was 100 to 1000 nM at Tie2, above 10000 nM at CDK2/CycE and 100 to 1000 nM at preactivated Tie2.

With `C[C@H](CO)Nc1nc(Nc2cccc(S(C)(=N)=O)c2)ncc1-c1ccc(NC(=O)C2(c3ccccc3)CC2)cc1` (mixture of isomers) [Example 33, N-{4-[4-{[(R)-2-Hydroxy-1-methylethyl]amino}-2-({3-[(RS)-S-methylsulfonimidoyl]phenyl}amino)pyrimidin-5-yl]phenyl}-1-phenylcyclopropanecarboxamide], the figures for the IC50 on Tie2, against CDK2/CycE and at preactivated Tie2 were below 100 nM, above 10000 nM and 100 to 1000 nM, respectively.
